Literature values in US12133913B2, “Methods of treating overactive bladder using trospium” (TARIS BIOMEDICAL LLC, priority 2018, dated 2024).
Structures can show the parent of a compound that is named as a salt. Where two headings read alike, the source gives them in different places.

Columns and labels:
[1] = tested on: oral naïve overactive bladder patients
[2] = in vivo

Cc1ccc(O)c([C@H](CCN(C(C)C)C(C)C)c2ccccc2)c1 [Detrol® LA, tolterodine tartrate]
Reduction in average daily incontinence episodes from baseline ([1]; in vivo, po): 0.8

O=C(O[C@H]1CN2CCC1CC2)N1CCc2ccccc2[C@@H]1c1ccccc1 [VESIcare®, solifenacin succinate]
Reduction in average daily incontinence episodes from baseline ([1]; oral treatment, oral naïve patients): 1.4

O=C(OC1CC2CCC(C1)[N+]21CCCC1)C(O)(c1ccccc1)c1ccccc1.[Cl-] (stereo not drawn) [oral trospium, 3-(2-hydroxy-2,2-diphenylacetoxy)spiro[bicyclo[3.2.1]octane-8,1′-pyrrolidin]-1′-ium chloride]
Predicted urine levels achieved with oral trospium [2]: 0.5 to 1 µg/mL
